# Data published in patent US6368803B1, “Detection of nucleic acids by target-catalyzed formation” (Dade Behring Inc., priority 1994, dated 2002).
# Values joined by “and” are separate entries in the source; they are usually repeats but may differ in a detail not shown here. Equal entries are not always repeated. {32P} = terminal 32P phosphate radiolabel
# What was measured:
# [1] = test system: single stranded target DNA (M13mp19); assay: Target-catalyzed isothermal 5'-nuclease cleavage of 5'-32P-labeled probe; fold amplification by gel electrophoresis and liquid scintillation; type: biochemical
# Procedure: Probe 2, the unlabeled probe, was designed to anneal to the target DNA 3' to, and contiguous with, the site at which the labeled probe annealed to the target DNA. […] However, good results were obtained in the absence of DATP. The reaction mixture was incubated at 72° C. and accumulation of product, a mononucleotide, namely, 5'^32P-C-OH, was determined by visualization using autoradiography following polyacrylamide gel electrophoresis. The fold of amplification was determined by liquid scintillation spectrometry of excised reaction products. A 10^5 fold amplification was observed. […] The product of this reaction was a dinucleotide, namely, 5'^32P-TC-OH (SEQ ID NO:4), that represented a 10^5-fold amplification. The above reaction protocol was repeated with different temperatures and different concentrations of reagents. All of the reactions, including those mentioned above, were carried out for a period of 3 hours. The following table summarizes the reagents and reaction parameters and the results obtained during the optimization procedure. The reaction protocol described in Example 1 was repeated using the following probes in place of Probe 1 or Probe 3: […]
# [2] = test system: Probe 5 hybridized to target DNA (M13mp19); assay: Cleavage of Probe 5 on target DNA using six different DNA polymerases with 5'-nuclease activity; type: biochemical; details: 2×10^9 target molecules; Probe 5 1 micromolar; three hours; 72 °C; 20-nucleotide fragment
# Procedure: Probe 2, the unlabeled probe, was designed to anneal to the target DNA 3' to, and contiguous with, the site at which the labeled probe annealed to the target DNA. […] However, good results were obtained in the absence of DATP. The reaction protocol described in Example 1 was repeated using 2×10^9 target molecules and Probe 5 (see Example 2) at a concentration of 1 micromolar in place of Probe 1. The reactions were conducted for three hours at a temperature of 72° C. using one of six different DNA polymerases, namely, AmpliTaq DNA polymerase, […] polymerase (Epicentre), Tfl(TM) DNA polymerase (Epicentre), Ultra Therm(TM) DNA polymerase (Bio/Can Scientific), […] polymerase (Amresco) and Panozyme(TM) DNA polymerase. The product of the reaction was a 20-nucleotide fragment (see Example 2). The following is a summary of the results obtained.
# [3] = probe 1 μM, target number 10^9, Taq 7.5 units, 72 °C, increase MgCl2 (7.5 mM), 3 hours
# [4] = probe 10 uM, 2×10^8 target molecules, Probe 2 1 uM, 7.5 units AmpliTaq, 72 °C, 7.5 mM MgCl2, 100 uM dATP, 3 hours
# [5] = probe 10 μM, target number 10^8, Taq 7.5 units, 74 °C, increase MgCl2 (7.5 mM), 3 hours
# [6] = probe 10 μM, target number 10^9, Taq 7.5 units, 74 °C, increase MgCl2 (7.5 mM), 3 hours
compound,measurement,setting,value
"5′ CGT-GGG-AAC-AAA-CGG-CGG-AT3′ (CGTGGGAACAAACGGCGGAT; DNA, 5' {32P}, backbone and methylation of C not given here) [Probe 1, 20-base oligonucleotide fully complementary to the target DNA with label on the 5′-nucleotide]",Fold amplification,"[1]; probe 1 μM, target number 10^8, Taq 7.5 units, 72 °C, add dATP (100 μM), 3 hours",1.0 × 10^4 fold
same,Fold amplification,"[1]; probe 1 μM, target number 10^9, Taq 2.5 units, 72 °C, buffer as described, 1.5 mM MgCl2, 3 hours",1.8 × 10^3 fold
same,Fold amplification,"[1]; probe 1 μM, target number 10^9, Taq 7.5 units, 72 °C, add dATP (100 μM), 3 hours",1.4 × 10^3 fold
same,Fold amplification,"[1]; probe 1 μM, target number 10^9, Taq 7.5 units, 72 °C, buffer as described, 1.5 mM MgCl2, 3 hours",2.0 × 10^3 fold
same,Fold amplification,[1]; [3],9.7 × 10^3 fold and 9.3 × 10^3 fold
same,Fold amplification,"[1]; probe 1 μM, target number 10^10, Taq 2.5 units, 72 °C, buffer as described, 1.5 mM MgCl2, 3 hours",8.8 × 10^2 fold
same,Fold amplification,[1]; [4],10^5 fold
same,Fold amplification,"[1]; probe 10 μM, target number 10^8, Taq 7.5 units, 72 °C, add dATP (100 μM), 3 hours",3.6 × 10^4 fold
same,Fold amplification,[1]; [5],1.1 × 10^5 fold
same,Fold amplification,"[1]; probe 10 μM, target number 10^9, Taq 7.5 units, 72 °C, add dATP (100 μM), 3 hours",1.4 × 10^4 fold
same,Fold amplification,[1]; [6],3.7 × 10^4 fold
"5′GAT-TAG-GAT-TAG-GAT-TAG-TCG-TGG-GAA-CAA-ACG-GCG-GAT3′ (GATTAGGATTAGGATTAGTCGTGGGAACAAACGGCGGAT; DNA, 5' {32P}, backbone and methylation of C not given here) [Probe 5, 39 nucleotides with 19 nucleotides at its 5′-end not complementary to the target DNA]",Fold amplification,"[1]; Example 1 protocol, probe concentration not given, product intact 20 nucleotide fragment",1.5×10^4 fold
"5′TCG-TGG-GAA-CAA-ACG-GCG-GAT3′ (TCGTGGGAACAAACGGCGGAT; DNA, 5' {32P}, backbone and methylation of C not given here) [Probe 3, 21 nucleotides withone base at the 5′-end not complementary to the target DNA]",Fold amplification,"[1]; probe 1 μM, target number 10^8, Taq 7.5 units, 72 °C, increase MgCl2 (7.5 mM), 3 hours",2.6 × 10^4 fold
same,Fold amplification,[1]; [3],9.9 × 10^3 fold
same,Fold amplification,[1]; [4],10^5 fold
same,Fold amplification,[1]; [5],1.0 × 10^5 fold
same,Fold amplification,[1]; [6],4.6 × 10^4 fold
5′TTA-TTT-CGT-GGG-AAC-AAA-CGG-CGG-AT3′ [Probe 4],Fold amplification,"[1]; Example 1 protocol, probe 1 micromolar, product intact seven nucleotide fragment",1.5×10^4 fold
"Nc1ncnc2c1ncn2[C@H]1C[C@H](O)[C@@H](COP(=O)(O)OP(=O)(O)OP(=O)(O)O)O1 [dATP, reference compound]",effect on rate of cleavage by the polymerase,"[1]; 100 uM in buffer, AmpliTaq DNA polymerase",enhance the rate of cleavage
AmpliTaq: Taq DNA polymerase from Perkin-Elmer Corporation with 5′-nuclease activity,Fragment (picomoles),[2],32 picomoles
